# Measured values reported in paper PMC10762035, “Molecular basis of human trace amine-associated receptor 1 activation” (Nature Communications, 2024).
# Changes are numbered by the printed parent chain. Where “and” joins values, the source holds several entries; their conditions need not be identical. Equal values may be shown once.
# Tests used:
# Type in all cases: cell-based
# hTA1 = biological target: T1, hTA1 (Homo sapiens, UniProt Q96RJ0); assay: GloSensor cAMP accumulation assay, concentration response, wild-type hTA1 in transfected HEK293T cells;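 note: luminescence read after 30 min compound exposure at room temperature in cells preloaded with D-Luciferin, reflecting Gs-driven cAMP rise, efficacy scaled to the maximal β-PEA response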
# T1 construct: expressed in transfected cells; host or cells: HEK293T
# T1 sequence (Q96RJ0 1-339): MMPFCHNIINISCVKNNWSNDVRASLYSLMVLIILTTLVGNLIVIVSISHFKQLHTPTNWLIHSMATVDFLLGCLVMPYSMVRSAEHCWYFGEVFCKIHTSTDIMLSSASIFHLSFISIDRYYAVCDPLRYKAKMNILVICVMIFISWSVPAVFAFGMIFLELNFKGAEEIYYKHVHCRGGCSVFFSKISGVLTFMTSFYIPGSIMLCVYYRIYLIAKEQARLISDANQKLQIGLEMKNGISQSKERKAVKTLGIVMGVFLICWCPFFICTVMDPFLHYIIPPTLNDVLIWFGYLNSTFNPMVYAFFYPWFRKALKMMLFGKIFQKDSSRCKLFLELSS
# hTA1 b2N = biological target: T2, hTA1 b2N (Homo sapiens, UniProt Q96RJ0); assay: GloSensor cAMP accumulation assay, b2N construct; settings: b2N, n=2
# T2 construct: read by me as the first 25 residues of β2AR (N); expressed in transfected cells; host or cells: HEK293T
# hTA1 C13S = biological target: T3, hTA1 C13S (Homo sapiens, UniProt Q96RJ0, C13S); assay: GloSensor cAMP accumulation assay, C13S mutant; settings: for C13S - Normalized Luminescence Counts (N=2): log[Compound], single wells
# T3 construct: expressed in transfected cells; host or cells: HEK293T
# T3 sequence (Q96RJ0 1-339 C13S): T1 sequence (Q96RJ0 1-339) with C13S
# hTA1 S107C = biological target: T4, hTA1 S107C (Homo sapiens, UniProt Q96RJ0, S107C); assay: GloSensor cAMP accumulation assay, S107C mutant;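 note: cells transiently co-expressing receptor and GloSensor biosensor, luminescence read after 30 min agonist exposure at room temperature, concentration-response fitted by nonlinear regression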
# T4 construct: expressed in transfected cells; host or cells: HEK293T
# T4 sequence (Q96RJ0 1-339 S107C): T1 sequence (Q96RJ0 1-339) with S107C
# hTA1 I290Y = biological target: T5, hTA1 I290Y (Homo sapiens, UniProt Q96RJ0, I290Y); assay: GloSensor cAMP accumulation assay, I290Y mutant; settings: for cAMP accumulation response, normalized (concentration-response source data, single replicate values): hTA1 I290Y (N=3), log[Compound];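 for cAMP accumulation response, normalized (concentration-response source data, single replicate values): normalized to the maximum response of β-PEA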
# T5 construct: expressed in transfected cells; host or cells: HEK293T
# T5 sequence (Q96RJ0 1-339 I290Y): T1 sequence (Q96RJ0 1-339) with I290Y
# hTA1 T271N = biological target: T6, hTA1 T271N (Homo sapiens, UniProt Q96RJ0, T271N); assay: GloSensor cAMP accumulation assay, T271N mutant
# T6 construct: expressed in transfected cells; host or cells: HEK293T
# T6 sequence (Q96RJ0 1-339 T271N): T1 sequence (Q96RJ0 1-339) with T271N
# T2 sequence (Q96RJ0 with tags, fused parts or gaps): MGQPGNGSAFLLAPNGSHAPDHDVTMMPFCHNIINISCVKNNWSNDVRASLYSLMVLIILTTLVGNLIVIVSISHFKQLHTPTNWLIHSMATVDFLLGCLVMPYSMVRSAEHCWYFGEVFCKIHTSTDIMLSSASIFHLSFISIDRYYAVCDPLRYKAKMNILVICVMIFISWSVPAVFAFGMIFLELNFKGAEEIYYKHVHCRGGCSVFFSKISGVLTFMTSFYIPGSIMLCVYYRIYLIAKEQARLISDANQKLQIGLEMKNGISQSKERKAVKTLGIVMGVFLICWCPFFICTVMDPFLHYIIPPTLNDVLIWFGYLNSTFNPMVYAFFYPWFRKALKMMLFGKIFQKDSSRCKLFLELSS
compound,measurement,setting,value
Cc1c(F)cccc1[C@H]1COC(N)=N1 [Ro5263397],"pEC50 values, Avg","hTA1; WT hTA1, average of the two experiments, Figure 2B source data",8.831
same,"pEC50 values, Mean","hTA1; WT hTA1, each line an independent experiment, 3 replicates, Figure 2B source data",8.992 and 8.671
same,"Emax values, Mean","hTA1; WT hTA1, β-PEA = 100, each line an independent experiment, 3 replicates",87.687 and 85.7197
same,"Emax values, Avg","hTA1; WT, average of the experiments, β-PEA = 100",86.7
same,"Emax values, Avg","hTA1; WT, average of the two experiments",86.7
same,"Emax values, Mean","hTA1; WT, mean of each independent experiment (3 replicates), β-PEA = 100",87.687 and 85.7197
same,"Emax values, Mean","hTA1; WT, single experiments (3 replicates each), β-PEA = 100",87.687 and 85.7197
same,pEC50 ± SEM,"hTA1; wt hTA1, HEK293T, n=3",8.83 ± 0.09
same,EC50,"hTA1; wt hTA1, HEK293T, n=3, read-out: EC50",1.47 nM and 1.48 nM
same,Emax,"hTA1; wt hTA1, relative to β-PEA",86.7%
same,Span ± SEM (Emax normalized to β-PEA),hTA1 b2N,78.31 ± 9.88
same,pEC50 ± SEM,hTA1 b2N,9.18 ± 0.09
same,EC50,hTA1 b2N; read-out: EC50,0.66 nM
same,Emax values,"hTA1 C13S; C13S, Mean of fit per experiment",73.5469 and 88.9072
same,Span ± SEM (Emax normalized to β-PEA),"hTA1 C13S; C13S, n=2",81.23 ± 7.68
same,pEC50 ± SEM,"hTA1 C13S; C13S, n=2",8.6 ± 0.08
same,EC50,"hTA1 C13S; C13S, n=2, read-out: EC50",2.48 nM
same,"pEC50 values, Mean","hTA1 C13S; hTA1 C13S, mean of 3 replicates, one line per independent experiment",8.7547 and 8.4539
same,C13S - Normalized Luminescence Counts (N=2),hTA1 C13S; M = -5,76.1278 and 93.1423 and 84.8444 and 95.4829 and 105.462 and 103.819
same,C13S - Normalized Luminescence Counts (N=2),hTA1 C13S; M = -5.522,68.8196 and 89.374 and 78.4497 and 85.6471 and 106.265 and 88.9317
same,C13S - Normalized Luminescence Counts (N=2),hTA1 C13S; M = -6,64.1759 and 93.599 and 66.6881 and 75.8649 and 92.3769 and 86.7896
same,C13S - Normalized Luminescence Counts (N=2),hTA1 C13S; M = -6.522,56.487 and 80.4671 and 60.7882 and 74.8831 and 89.3601 and 80.042
same,decrease in potency vs wild type,hTA1 S107C; S107C,approximately 100 fold
same,ΔEmax values (each mutant value - WT average),hTA1 S107C; S107C mutant minus WT average,21.9095
same,"pEC50 values, Mean","hTA1 S107C; S107C mutant, each line an independent experiment, 3 replicates",7.847 and 7.402
same,"Emax values, Mean","hTA1 S107C; S107C mutant, β-PEA = 100, each line an independent experiment, 3 replicates",108.613 and 99.8921
same,Span ± SEM (Emax normalized to β-PEA),"hTA1 S107C; S107C, n=2",112.19
same,pEC50 ± SEM,"hTA1 S107C; S107C, n=2",6.61 ± 0.80
same,EC50,"hTA1 S107C; S107C, n=2, read-out: EC50",248 nM
same,Span ± SEM (Emax normalized to β-PEA),hTA1 I290Y; I290Y,61.58 ± 3.99
same,pEC50 ± SEM,hTA1 I290Y; I290Y,9.16 ± 0.18
same,EC50,"hTA1 I290Y; I290Y, read-out: EC50",0.69 nM and 0.7 nM
same,"Emax values, Mean","hTA1 I290Y; I290Y, single experiments (3 replicates each), β-PEA = 100",59.7265 and 69.2263 and 55.7889
same,"cAMP accumulation response, normalized (concentration-response source data, single replicate values)",hTA1 I290Y; M = -5,77.8381 and 104.308 and 85.2251 and 91.2333 and 75.1101 and 85.0039 and 68.1063 and 86.1539 and 148.193
same,"cAMP accumulation response, normalized (concentration-response source data, single replicate values)",hTA1 I290Y; M = -5.522,49.5212 and 78.7614 and 62.4485 and 78.7745 and 74.7437 and 50.1924 and 55.6986 and 43.2908 and 39.9069
same,"cAMP accumulation response, normalized (concentration-response source data, single replicate values)",hTA1 I290Y; M = -6,40.5953 and 87.0718 and 61.2173 and 64.117 and 63.3841 and 61.5519 and 45.5468 (2×) and 50.0587
same,"cAMP accumulation response, normalized (concentration-response source data, single replicate values)",hTA1 I290Y; M = -6.522,56.6004 and 53.5225 and 48.9057 and 84.6375 and 52.7574 and 75.4765 and 66.9783 and 45.5468 and 38.7789
same,"cAMP accumulation response, normalized (concentration-response source data, single replicate values)",hTA1 I290Y; M = -7,35.3628 and 69.2199 and 41.5187 and 56.0554 and 64.117 and 50.9252 and 46.6748 and 39.9069 and 45.5468
same,"cAMP accumulation response, normalized (concentration-response source data, single replicate values)",hTA1 I290Y; M = -7.522,46.4433 and 76.2991 and 50.1368 and 60.819 and 63.0177 and 60.4526 and 39.9069 and 45.5468 and 47.8027
same,"cAMP accumulation response, normalized (concentration-response source data, single replicate values)",hTA1 I290Y; M = -8,61.8329 and 86.4562 and 67.9887 and 68.1478 and 70.3464 and 73.6443 and 36.523 and 37.651 and 32.0111
same,"cAMP accumulation response, normalized (concentration-response source data, single replicate values)",hTA1 I290Y; M = -8.522,54.7537 and 78.4536 and 76.2991 and 69.98 and 71.4457 and 63.7505 and 30.8831 and 33.1391 (2×)
same,"cAMP accumulation response, normalized (concentration-response source data, single replicate values)",hTA1 I290Y; M = -9,45.2122 and 78.7614 and 61.8329 and 45.0622 and 50.1924 and 56.0554 and 15.0915 and 19.6034 and 12.8355
same,"cAMP accumulation response, normalized (concentration-response source data, single replicate values)",hTA1 I290Y; M = -9.522,19.3577 and 32.5927 and 26.1291 and 49.4595 and 39.5657 and 25.2746 and 3.812 (2×) and 8.324
same,"cAMP accumulation response, normalized (concentration-response source data, single replicate values)",hTA1 I290Y; M = -10,27.9758 and 29.5148 and 27.3602 and 7.319 and 9.884 and 17.5794 and 0.4278 and 2.684 and 7.196
same,"cAMP accumulation response, normalized (concentration-response source data, single replicate values)",hTA1 I290Y; M = -10.522,6.738
same,"ΔpEC50 values (each mutant value - WT average), Mean","hTA1 T271N; T271N mutant minus WT average, Figure 5B",-0.511 and -0.5494
same,"pEC50 values, Mean","hTA1 T271N; T271N mutant, Figure 5B, each row one independent experiment (3 replicates)",8.32 and 8.282
same,"Emax values, Mean","hTA1 T271N; T271N mutant, Figure 5B, β-PEA = 100, each row one independent experiment (3 replicates)",116.619 and 99.549
same,Span ± SEM (Emax normalized to β-PEA),"hTA1 T271N; T271N, n=2",108.08 ± 8.54
same,pEC50 ± SEM,"hTA1 T271N; T271N, n=2",8.3 ± 0.07
same,EC50,"hTA1 T271N; T271N, n=2, read-out: EC50",5 nM
